Literature values as cited in paper PMC9516332 (Frontiers in Oncology, 2022).
Where two headings read alike, the source gives them in different places.

Tests used:
[1] = biological target: panel of 255 wild-type kinases (Homo sapiens, UniProt Q16654); conditions: kinase PDHK4, 1 µmol/L single concentration, cited from earlier work
[2] = biological target: panel of 255 wild-type kinases (Homo sapiens, UniProt Q9H0K1); conditions: kinase QIK, 1 µmol/L single concentration, cited from earlier work
[3] = biological target: panel of 255 wild-type kinases (Homo sapiens, UniProt P08581); conditions: MET, 1 µmol/L single concentration, cited from earlier work
[4] = biological target: panel of 255 wild-type kinases (Homo sapiens, UniProt P50750); conditions: CDK9/CycT1 kinase assay, 1 µmol/L single concentration, cited from earlier work
[5] = biological target: panel of 255 wild-type kinases (Homo sapiens, UniProt P06241); conditions: kinase FYN [isoform a], 1 µmol/L single concentration, cited from earlier work
[6] = biological target: T1, panel of 255 wild-type kinases (Homo sapiens, UniProt O14965); conditions: 1 µmol/L single concentration, cited from earlier work; for %-inhibition AurA: AurA kinase assay; for %-inhibition AurA/TPX2: AurA/TPX2 kinase assay
T1 sequence (O14965 1-403): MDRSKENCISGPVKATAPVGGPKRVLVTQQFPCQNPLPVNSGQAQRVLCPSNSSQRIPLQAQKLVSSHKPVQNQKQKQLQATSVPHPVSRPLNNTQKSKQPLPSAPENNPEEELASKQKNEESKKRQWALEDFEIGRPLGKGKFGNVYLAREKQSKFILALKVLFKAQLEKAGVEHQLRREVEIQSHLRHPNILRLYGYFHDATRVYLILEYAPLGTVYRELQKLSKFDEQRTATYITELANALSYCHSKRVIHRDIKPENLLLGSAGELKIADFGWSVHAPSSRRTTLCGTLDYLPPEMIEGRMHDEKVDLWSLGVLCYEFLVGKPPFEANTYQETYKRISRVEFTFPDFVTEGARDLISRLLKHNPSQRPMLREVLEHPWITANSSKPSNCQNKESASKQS

[7] = biological target: panel of 255 wild-type kinases (Homo sapiens, UniProt Q15418); conditions: kinase RSK1, 1 µmol/L single concentration, cited from earlier work
[8] = biological target: panel of 255 wild-type kinases (Homo sapiens, UniProt P51812); conditions: kinase RSK2, 1 µmol/L single concentration, cited from earlier work
[9] = biological target: panel of 255 wild-type kinases (Homo sapiens, UniProt O43683); conditions: BUB1/BUB3 kinase assay; 1 µmol/L single concentration; ref DOI: 10.1158/1535-7163.MCT-18-0877; cited from earlier work
[10] = biological target: panel of 255 wild-type kinases (Homo sapiens, UniProt P06493); conditions: CDC2/CycB1 kinase assay, 1 µmol/L single concentration, cited from earlier work
[11] = biological target: panel of 255 wild-type kinases (Homo sapiens, UniProt Q96SB4); conditions: kinase SRPK1, 1 µmol/L single concentration, cited from earlier work
[12] = biological target: panel of 255 wild-type kinases (Homo sapiens, UniProt Q8N4C8); conditions: MINK, 1 µmol/L single concentration, cited from earlier work
[13] = biological target: panel of 255 wild-type kinases (Homo sapiens, UniProt P49674); conditions: kinase CK1ε, 1 µmol/L single concentration, cited from earlier work
[14] = biological target: panel of 255 wild-type kinases (Homo sapiens, UniProt Q15375); conditions: kinase EPHA7, 1 µmol/L single concentration, cited from earlier work
[15] = biological target: panel of 255 wild-type kinases (Homo sapiens, UniProt P49759); conditions: kinase CLK1, 1 µmol/L single concentration, cited from earlier work
[16] = biological target: panel of 255 wild-type kinases (Homo sapiens, UniProt Q16288); conditions: kinase TRKC, 1 µmol/L single concentration, cited from earlier work
[17] = biological target: panel of 255 wild-type kinases (Homo sapiens, UniProt Q7KZI7); conditions: MARK2, 1 µmol/L single concentration, cited from earlier work
[18] = biological target: panel of 255 wild-type kinases (Homo sapiens, UniProt Q14012); conditions: CaMK1α kinase assay, 1 µmol/L single concentration, cited from earlier work
[19] = biological target: panel of 255 wild-type kinases (Homo sapiens, UniProt Q96GD4); conditions: AurB kinase assay, 1 µmol/L single concentration, cited from earlier work
[20] = biological target: panel of 255 wild-type kinases (Homo sapiens, UniProt P00533); conditions: kinase EGFR; 1 µmol/L single concentration; ref DOI: 10.1371/journal.pone.0092146; cited from earlier work
[21] = ref DOI: 10.1158/1535-7163.MCT-18-0877
[22] = ref DOI: 10.1371/journal.pone.0092146

SMILES | %-inhibition at 1 µmol/L, PDHK4 [1, 22] | %-inhibition at 1 µmol/L, QIK [2, 22] | %-inhibition, MET [3, 22] | %-inhibition CDK9/CycT1 [4, 22] | %-inhibition at 1 µmol/L, FYN [isoform a] [5, 22] | %-inhibition AurA [6, 22] | %-inhibition AurA/TPX2 [6, 22] | %-inhibition at 1 µmol/L, RSK1 [7, 22] | %-inhibition at 1 µmol/L, RSK2 [8, 22] | %-inhibition CDC2/CycB1 [10, 22] | %-inhibition at 1 µmol/L, SRPK1 [11, 22] | %-inhibition, MINK [12, 22] | %-inhibition at 1 µmol/L, EGFR [20] | %-inhibition at 1 µmol/L, CK1ε [13, 22] | %-inhibition at 1 µmol/L, EPHA7 [14, 22] | %-inhibition at 1 µmol/L, CLK1 [15, 22] | %-inhibition at 1 µmol/L, TRKC [16, 22] | %-inhibition, MARK2 [17, 22] | %-inhibition CaMK1α [18, 22] | %-inhibition AurB [19, 22] | other results
C=CC(=O)Nc1cc(Nc2nccc(-c3cn(C)c4ccccc34)n2)c(OC)cc1N(C)CCN(C)C [osimertinib] | – | – | – | – | – | – | – | – | – | – | – | – | – | – | – | – | – | – | – | – | %-inhibition at 1 µmol/L, PDHK4 [1, 21]: 0.264%; %-inhibition at 1 µmol/L, QIK [2, 21]: 33%; %-inhibition, MET [3, 21]: 12%; %-inhibition CDK9/CycT1 [4, 21]: 0.721%; %-inhibition at 1 µmol/L, FYN [isoform a] [5, 21]: 0.721%; %-inhibition AurA [6, 21]: 9%; %-inhibition AurA/TPX2 [6, 21]: 7.38%; %-inhibition at 1 µmol/L, RSK1 [7, 21]: 42%; %-inhibition at 1 µmol/L, RSK2 [8, 21]: 42%; %-inhibition BUB1/BUB3 [9]: 11%; %-inhibition CDC2/CycB1 [10, 21]: 23%; %-inhibition at 1 µmol/L, SRPK1 [11, 21]: -9%; %-inhibition, MINK [12, 21]: 21%; %-inhibition at 1 µmol/L, CK1ε [13, 21]: 18%; %-inhibition at 1 µmol/L, EPHA7 [14, 21]: 2.35%; %-inhibition at 1 µmol/L, CLK1 [15, 21]: 47%; %-inhibition at 1 µmol/L, TRKC [16, 21]: -1.61%; %-inhibition, MARK2 [17, 21]: 26%; %-inhibition CaMK1α [18, 21]: 10%; %-inhibition AurB [19, 21]: -1.24%
CC(=O)Nc1cccc(-n2c(=O)n(C3CC3)c(=O)c3c(Nc4ccc(I)cc4F)n(C)c(=O)c(C)c32)c1 [trametinib] | -1.65% | -4.66% | -2.41% | -2.31% | 9% | -2% | -5.37% | -10% | -1.76% | 8% | -0.0691% | -1.8% | -0.0959% | -5.38% | -5% | -0.618% | -7.43% | -6% | -2% | -4% | –
CCCS(=O)(=O)Nc1ccc(F)c(C(=O)c2c[nH]c3ncc(-c4ccc(Cl)cc4)cc23)c1F [vemurafenib] | -1.4% | 6% | 3.67% | 1.33% | 81% | 23% | -2.59% | -1.32% | -2.31% | 10% | 2% | 10% | 7% | 2.46% | -0.639% | 5% | 5% | -0.167% | -3.18% | 6% | –
